“And” between values parts separate entries of the source, which are not always exact repeats. Identical values can stand only once. Like-named read-outs stand apart in the source and are kept apart here.
Tests used:
[1] = tested on: β-glucosidase; settings: substrate 0.25 mM, phosphate buffer pH 7.5, 30° C, 120 minutes
Method: (§1) The enzymatic kinetics are achieved in a microplate on soluble enzymatic extracts (A, B, C and D) rich in activities of the cellulase and xylanase type. These extracts are diluted 10 times (substrate 18, FIG. 1) or 100 times (substrate 10, 12 and 14, FIG. 2) in a 50 mM phosphate buffer, NaCl 150 mM, pH=7.5. A volume of 20 μL of diluted enzymatic extract is added to 20 μL of fluorogenic substrate (10, 12, 14 or 18) at 0.25 mM in a 50 mM phosphate buffer, NaCl 150 mM, pH=7.5. The kinetics are achieved at 30° C. The enzymatic hydrolysis of the different fluorogenic substrate is followed for 120 minutes by measuring the fluorescence with excitation and emission wavelengths of: 339 nm and 452 nm for the substrates 10, 12 and 14; 375 nm and 510 nm for the substrate 18.

[2] = tested on: cellulase; settings: substrate 0.25 mM in inducing Dubos medium with carboxymethyl-cellulose; 30° C, 24 h; excitation/emission 388/455 nm
Method: (§2) Different control strains are cultivated in an LB medium at 30° C. with stirring (240 rpm) for 18 h. For each strain, the culture is centrifuged (2,500 g, 5 min) and the pellet of cells is washed twice in 5 mL of LB medium (centrifugation at 2,500 g, 5 min). This pellet is used for inoculating at OD=0.005 a culture in an inducing medium (Dubos medium with 2.5 g/L of carboxymethyl-cellulose) containing the fluorogenic substrate (8 or 10) at 0.25 mM. The culture is incubated at 30° C. without stirring for 24 h. Culture supernatant samples are taken at different incubation times in order to be able to follow the occurrence of cellulase or β-glucosidase activities in the culture medium. The occurrence of these activities is followed by measurement of the fluorescence on the culture supernatants in microplates with excitation and emission wavelengths of 388 nm and 455 nm.

[3] = tested on: Bacillus subtilis NCIM 2724
Method: (§3) Two control stains are used: one having a cellulase activity (Bacillus subtilis NCIM 2724) the other one not having any activity (Escherichia coli BL21). Both strains are cultivated in an LB medium at 30° C. with stirring (240 rpm) for 18 h. For each strain, the culture is centrifuged (2 500 g, 5 min) and the pellet of cells is washed twice in 5 mL of an LB medium (centrifugation at 2 500 g, 5 min). This pellet is used for inoculation at OD=0.005 a culture in an inducing medium (Dubos medium with 2.5 g/L of carboxymethyl-cellulose) containing the fluorogenic substrate 8 and 2.5 μM (B. subtilis NCIM 2724) or 10 μM (E. coli BL21) of sulforhodamine. Both of these cell suspensions are used with perfluorinated oil in order to produce an emulsion consisting of two populations of droplets each containing one of the described suspensions. The blue and red fluorescences of the droplets are measured individually, on a sample of the emulsion, during production (t=0 h) and reinjection after having incubated the emulsion for 24 h at 30° C.
(§4) The graphs a and b, shown in FIG. 5, are two dimensional histograms of the red (in abscissas, RFU) and blue (in ordinates, RFU) fluorescence intensities measured on the emulsion during its production (a) and its reinjection after incubation fro 24 h at 30° C. (b). The population density is illustrated by a color code varying from pink (1 droplet) to red (>1,000 droplets) according to a logarithmic scale.

[4] = tested on: Escherichia coli BL21; settings: inactive strain
Method: as §3, §4

[5] = tested on: β-xylosidase; settings: extracts diluted 100 times; substrate 0.25 mM; phosphate buffer pH 7.5; 30° C; 120 minutes; excitation/emission 339/452 nm
Method: as §1

[6] = tested on: xylanase; settings: extracts diluted 100 times; substrate 0.25 mM; phosphate buffer pH 7.5; 30° C; 120 minutes; excitation/emission 339/452 nm
Method: as §1

[7] = tested on: β-glucosidase; settings: substrate 0.25 mM in inducing Dubos medium with carboxymethyl-cellulose; 30° C, 24 h; excitation/emission 388/455 nm
Method: as §2

O=c1cc(CS(=O)(=O)[O-])c2c(cc(O[C@@H]3O[C@H](CO)[C@@H](O)[C@H](O)[C@H]3O)c3ccccc32)o1.[Na+] [substrate 18, sodium β-D-glucoside 5,6-benzo-7-hydroxycoumarin-4-methanesulfonate]
detection of enzymatic activity of type β-glucosidase by fluorescence ([1]; extracts diluted 10 times, excitation/emission 375/510 nm): allow detection of the enzymatic activities

O=c1cc(CS(=O)(=O)[O-])c2cc(F)c(O[C@@H]3O[C@H](CO)[C@@H](O[C@@H]4O[C@H](CO)[C@@H](O)[C@H](O)[C@H]4O)[C@H](O)[C@H]3O)c(F)c2o1.[Na+] [substrate 8, sodium β-D-cellobioside 6,8-difluoro-7-hydroxycoumarin-4-methanesulfonate]
detection of enzymatic activity of the cellulase type on cultures of microorganisms [2]: allow detection of the enzymatic activities | change of blue fluorescence of the droplets ([3]; after 24 h of incubation at 30° C, active strain): blue fluorescence significantly increased | detection of an activity of the cellulase type on microorganisms within an emulsion ([3]; emulsion generated by a microfluidic system, 24 h at 30° C): allows detection of an activity of the cellulase type | % of positive droplets ([3]; reinjection (t = 24 h) after incubation at 30° C, active strain, 2.5 μM sulforhodamine, threshold 37.56 RFU blue fluorescence): 27% and 27.61% | change of blue fluorescence of the droplets ([4]; after 24 h of incubation at 30° C): do not have any increase of their blue fluorescence | % of positive droplets ([4]; reinjection (t = 24 h) after incubation at 30° C, 10 μM sulforhodamine, threshold 37.56 RFU blue fluorescence): 0.26%

O=c1cc(CS(=O)(=O)[O-])c2cc(F)c(O[C@@H]3OC[C@@H](O)[C@H](O)[C@H]3O)c(F)c2o1.[Na+] [substrate 12, sodium β-D-xyloside 6,8-difluoro-7-hydroxycoumarin-4-methanesulfonate]
detection of enzymatic activity of type β-xylosidase by fluorescence [5]: allow detection of the enzymatic activities

O=c1cc(CS(=O)(=O)[O-])c2cc(F)c(O[C@@H]3OC[C@@H](O[C@@H]4OC[C@@H](O)[C@H](O)[C@H]4O)[C@H](O)[C@H]3O)c(F)c2o1.[Na+] [substrate 14, sodium β-D-xylobioside 6,8-difluoro-7-hydroxycoumarin-4-methanesulfonate]
detection of enzymatic activity of xylanase type by fluorescence [6]: allow detection of the enzymatic activities

O=c1cc(CS(=O)(=O)[O-])c2cc(F)c(O[C@@H]3O[C@H](CO)[C@@H](O)[C@H](O)[C@H]3O)c(F)c2o1.[Na+] [substrate 10, sodium β-D-glucoside 6,8-difluoro-7-hydroxycoumarin-4-methanesulfonate]
detection of enzymatic activity of type β-glucosidase by fluorescence ([1]; extracts diluted 100 times, excitation/emission 339/452 nm): allow detection of the enzymatic activities | detection of enzymatic activity of the β-glucosidase type on cultures of microorganisms [7]: allow detection of the enzymatic activities
